Measurements taken from PMC10222323, “Novel Biotinylated Cu(II)-Phenanthroline Complexes: 2D and 3D Cytotoxic Activity and Mechanistic Insight” (Molecules, 2023).
Like-named read-outs stand apart in the source and are kept apart here.

What was measured:
[1] = tested on: HCT-15 (colorectal with low sensitivity for cisplatin) cancer cells; test: MTT cytotoxicity test, 72 h, HCT-15; format: cell-based, human
Procedure: (§1) The in vitro anticancer potential of the newly developed complexes and of the ligands has been tested on six different cancer cell lines including PSN-1 (pancreatic), HCT-15 (colorectal with low sensitivity for cisplatin), 2008 (ovarian), A431 (cervical), MDA-MB-231 (breast), and U1285 (lung) cancer cells. For comparison purposes, cisplatin efficacy was assessed under the same experimental conditions.
(§2) Tested compounds were dissolved in DMSO and added to the cell-growth medium to a final solvent concentration of 0.5%, which is well reported to not have cytotoxic effects on cell viability. Cisplatin (Sigma Chemical Co., St. Louis, MO, USA) was dissolved in a physiologic solution (0.9% sodium chloride).
(§3) Human colon (HCT-15), pancreatic (PSN-1), and breast (MDA-MB-231) carcinoma-cell lines were obtained from the American Type Culture Collection (ATCC, Rockville, MD). Human cervical carcinoma (A431) cells were kindly provided by Prof. F. Zunino (Division of Experimental Oncology B, Istituto Nazionale dei Tumori, Milan). Human ovarian carcinoma (2008) cells and their cisplatin-resistant counterpart (C13*) were kindly provided by Prof. G. Marverti (Dipartimento di Scienze Biomediche, Università di Modena University, Italy). Cell lines were cultured in RPMI-1640 or DMEM medium (Euroclone) added with 10% fetal calf serum (Euroclone, Milan, Italy), antibiotics (50 units per mL penicillin, and 50 μg mL^−1 streptomycin), and 2 mM L-glutamine.
(§4) The growth inhibitory effect toward the tumour cell lines was evaluated by the MTT test as previously described.

MDA-MB-231 cells = settings: 24 h, 2 and 3 μM
Procedure: The ability to enter cancer cells is a very important factor to determine the biological activity of metal-based compounds. Consequently, with the aim of correlating the antiproliferative activity elicited by all the newly developed complexes and their accumulation profiles into cancer cells, the Cu content was evaluated in the SMVT overexpressing MDA-MB-231 cells. Uptake profiles were determined by treating cancer cells for 24 h with two concentrations (2 and 3 μM) of tested complexes.
MDA-MB-231 cells (2.5 × 10^6) were seeded in 75 cm^2 flasks in a growth medium (20 mL). Following 24 h, cells were treated for 24 h with tested complexes and samples processed as previously described.
Figure 2 Cellular uptake of complexes 1–4 in drug-treated MDA-MB-231 human breast cancer cells. Cells were incubated for 24 h with […] of tested complexes. The amount of cellular Cu was estimated by GF-AAS. Error bars are S.D.

[2] = tested on: 2008 (ovarian) cancer cells; test: MTT cytotoxicity test, 72 h, 2008; format: cell-based, human
Procedure: as §1
(§5) Table 2 reported the IC50 values of the complexes against two types of ovarian cancer cells, one sensitive (2008) and one resistant to cisplatin (C13*). […] The resistance factor (R.F., the ratio among IC50 values obtained in resistant C13*cells and those calculated in the sensitive 2008 ones) calculated for all tested complexes resulted to be ≤2 (R.F. for cisplatin 11.1), strongly confirming the ability of the complexes to bypass cisplatin resistance.
as §2, §3, §4

noncancerous CHO cells = test: Cytotoxicity against noncancerous CHO cells; format: cell-based; settings: for S.I. (selectivity index): average IC50 toward normal cells divided by the average IC50 for the malignant cells; for IC50: noncancerous cells
Source text: In order to preliminarily assess the possible toxic effect on noncancerous cells, we also evaluated the cytotoxic potential of the newly developed Cu(II) complexes against noncancerous CHO cells (Table 3). For all tested complexes, calculated IC50 values were higher than those obtained (on average) against tumour cells, thus indicating for this class of metal complexes a slightly preferential cytotoxicity against cancer cells, as attested by the calculated selectivity index values (SI = the quotient of the average IC50 toward normal cells divided by the average IC50 for the malignant cells).
as §4

DNA [3] = test: Ethidium bromide displacement assay; format: binding; settings: EtBr displacement
Procedure: A number of research studies were performed on the elucidation of the mechanism of action of copper complexes in the past three decades. Despite several different molecular targets having been proposed for copper(II) complexes, DNA still represents one of the most substantiated when considering diamine ligands. On this basis, we thought it of interest to evaluate the ability of tested complexes to interact with DNA, both at molecular and cellular levels. An ethidium bromide (EB) displacement assay was used to understand if the complexes interact with the DNA at a molecular level. […] These values are very much in line with what was previously seen by us and also very close to the reported literature values of 2.60 × 10^7 M(bp^−1) and 3.04 × 10^7 M(bp^−1) for the bis complexes of [Cu(phen)2]^2+ and [Cu(DPQ)2]^2+ reported by Molphy et al.. […] It is largely possible that the presence of the 1,10-phenanthroline scaffold on compounds 3 and 4 is contributing to the increased displacement of the EtBr (probably by intercalation) and leading to a more noticeable decrease in the fluorescence.
EtBr displacement assays were performed in 10 mM phosphate buffer solution (pH 7.4) as described by Boger et al. The binding values were calculated using the % relative decrease of fluorescence at 50% and the equation below. (1) EEBEtBr/compound50%FI

[4] = tested on: A431 (cervical) cancer cells; test: MTT cytotoxicity test, 72 h, A431; format: cell-based, human
Procedure: as §1, §2, §3, §4

[5] = tested on: C13* ovarian cancer cells (cisplatin-resistant); test: MTT cytotoxicity test, 72 h, cisplatin-resistant C13*; format: cell-based, human; settings: for R.F. (resistance factor): RF = IC50 resistant (C13*)/IC50 parental cells (2008); for IC50: cisplatin-resistant cells, 72 h, MTT test
Procedure: as §5, §2, §3, §4

[6] = tested on: PSN-1 (pancreatic) cancer cells; test: MTT cytotoxicity test, 72 h, PSN-1; format: cell-based, human
Procedure: as §1, §2, §3, §4

[7] = tested on: U1285 (lung) cancer cells; test: MTT cytotoxicity test, 72 h, U1285; format: cell-based, human; settings: mean ± S.D., read-out: IC50 U-1285
Procedure: as §1, §2, §4

[8] = tested on: MDA-MB-231 (breast) cancer cells; test: MTT cytotoxicity test, 72 h, MDA-MB-231; format: cell-based, human
Procedure: as §1, §2, §3, §4

DNA [9] = tested on: DNA; design: method as in earlier work; settings: reported literature values; ref 26 (Molphy et al.); cited from earlier work
[10] = tested on: six different cancer cell lines; test: MTT cytotoxicity, average over the cancer cell line panel; format: cell-based, human; settings: for cytotoxic activity of ligands (in words): compared with the complexes
Procedure: as §1
Due to note, all the complexes were very effective in the MDA-MB-231 cell line, which overexpress the SMVT (sodium-dependent multivitamin transporter) receptor, which is well known to be involved in the intracellular translocation of biotin [24].
as §4

[11] = tested on: human pancreatic PSN-1 cancer-cell spheroids; test: 3D spheroid cytotoxicity, APH assay, 72 h; format: cell-based; settings: 3D spheroids, 72 h, APH test
Procedure: The cancer spheroids were treated with tested complexes for 72 h, and the cell viability was estimated by means of a modified acid phosphatase (APH) assay.
Spheroid cultures were performed by seeding 2.5 × 10^3 PSN-1 cancer cells/well in spheroid-suitable tissue culture untreated 96-well plates (Greiner Bio-one, Kremsmünster, Austria) in RPMI-1640 cell culture medium without phenol red (Sigma Chemical Co., St. Louis, MO, USA) containing 10% fetal calf serum and supplemented with 20% methyl cellulose stock solution.
An established APH-modified assay was used to detect the cytotoxicity profile in 3D spheroids, as previously described. IC50 values were calculated using a 4-PL model.

[12] = Table 2, cisplatin-sensitive parental cells
[13] = Homo sapiens, Table 1, mean ± S.D.

Molecule	IC50 ([1]; mean ± S.D.) [µM]	IC50 ([2]; Table 1, mean ± S.D.) [µM]	IC50 [2, 12] [µM]	IC50 (noncancerous CHO cells) [µM]	IC50 ([4]; mean ± S.D.) [µM]	R.F. (resistance factor) [5]	IC50 [5] [µM]	IC50 ([6]; mean ± S.D.) [µM]	IC50 [7] [µM]	IC50 ([8]; mean ± S.D.) [µM]	further results
[Cu(phen)(dafone-biotin)](NO3)2 [Complex 3]	1.8 ± 0.2	3.3 ± 0.1	3.3 ± 0.1	2.1 ± 0.8	0.9 ± 0.2	0.7	2.5 ± 0.2	0.7 ± 0.2	3 ± 0.3	1.4 ± 0.4	Cu intracellular content (uptake) (MDA-MB-231 cells): most internalised into cancer cells; S.I. (selectivity index) (noncancerous CHO cells): 1.1; fluorescence quenching (in words) (DNA [3]): highest quenching values; relative fluorescence decrease (DNA [3]): greater than 50%; binding constant (DNA [3]; 10 mM phosphate buffer pH 7.4, from 50% fluorescence decrease): 2.53 × 10^7 M(bp^−1)
[Cu+2].c1cnc2c(c1)ccc1cccnc12.c1cnc2c(c1)ccc1cccnc12 [[Cu(phen)2]^2+, copper bis-phenanthroline [Cu(phen)2]^2+]	–	–	–	–	–	–	–	–	–	–	binding constant (literature) (DNA [9]): 2.60 × 10^7 M(bp^−1)
O=C(CCCC[C@@H]1SC[C@@H]2NC(=O)N[C@@H]21)NN=C1c2cccnc2-c2ncccc21 [A, Biotin-Dafone]	–	–	–	–	–	–	–	–	–	–	IC50 ([1]; Homo sapiens, HCT-15, mean ± S.D.): > 50 µM; IC50 [2, 13]: > 50 µM; cytotoxic activity of ligands (in words) [10]: did not show activity comparable to the complexes; IC50 ([4]; Homo sapiens, A-431, mean ± S.D.): > 50 µM; IC50 ([6]; Homo sapiens, PSN1, mean ± S.D.): > 50 µM; IC50 ([7]; Homo sapiens): > 50 µM; IC50 ([8]; Homo sapiens, MDA-MB-231, mean ± S.D.): > 50 µM
O=C(CCCC[C@@H]1SC[C@@H]2NC(=O)N[C@@H]21)NN=C1c2ccc[n+]3c2-c2c1ccc[n+]2[Cu-2]3([Cl])[Cl] [Complex 1, [Cu(dafone-biotin)Cl2]]	0.4 ± 0.1	4.5 ± 0.6	4.5 ± 0.6	13.1 ± 0.9	7.2 ± 0.6	0.4	2 ± 0.8	0.6 ± 0.2	5.9 ± 0.5	2.1 ± 0.4	S.I. (selectivity index) (noncancerous CHO cells): 3.9; IC50 ([10]; 2D assays, average over the cancer cell lines of Table 1): 3.4 µM; fluorescence quenching (in words) (DNA [3]): very small quenching
O=C(CCCC[C@@H]1SC[C@@H]2NC(=O)N[C@@H]21)N/N=C1\C(=O)c2cccnc2-c2ncccc21 [B, Biotin-Phen]	–	–	–	–	–	–	–	–	–	–	IC50 [2, 13]: 21.5 ± 0.72 µM; cytotoxic activity of ligands (in words) [10]: did not show activity comparable to the complexes; IC50 ([7]; Homo sapiens): 28.1 ± 2.77 µM
N.N.[Cl][Pt][Cl] [Cisplatin, cisplatin, reference compound]	13.9 ± 1.7	2.2 ± 1.4	2.2 ± 1.4	24.1 ± 3	2.1 ± 0.9	11.1	24.1 ± 3	12.1 ± 2.9	2.1 ± 0.9	30.5 ± 2.6	IC50 [11]: 52.6 ± 3.8 µM
c1cc2c3nccnc3c3ccc[n+]4c3c2[n+](c1)[Cu-2]41[n+]2cccc3c4nccnc4c4ccc[n+]1c4c32 [[Cu(DPQ)2]^2+]	–	–	–	–	–	–	–	–	–	–	binding constant (literature) (DNA [9]): 3.04 × 10^7 M(bp^−1)
